Like-named read-outs stand apart in the source and are kept apart here. Marks after values point to notes of the source that are not given here.
Legend:
[1] = Solubility in organic solvents; conditions: 25 °C, organic solvent or mixture
[2] = pKa (water) of drug substance
[3] = for Parent remaining: 168 h
Solution pH (water) = assay type: physicochemical
[4] = Hygroscopicity by Dynamic Vapor Sorption (DVS); assay type: physicochemical
[5] = Holding at approximately 170° C., analysis by XRPD, DSC and 1H NMR; assay type: physicochemical; conditions: held at approximately 170° C. for several hours
Protocol: Holding Fenfluramine HCl at approximately 170° C. for several hours causes a melt and evaporation event to take place with recombination and cooling to provide a white solid.

Solid stability by HPLC = assay type: physicochemical; conditions: 8 weeks at 40° C., 60° C. and 80° C.; 7 days at 150° C.; all conditions
[6] = Stability analysis of the salt (Form 1) under temperature/humidity and photostability conditions; assay type: physicochemical; conditions: one week at 40° C./0% RH, three weeks at 40° C./75% RH, and photostability conditions
Source text: Fenfluramine HCl is developed as a single polymorph Form 1. A polymorphism and pre-formulation study has been conducted. Under a wide range of solvents and conditions crystalline material is produced of the same polymorph Form 1 based on a well-defined XRPD pattern and a consistent reproducible endotherm by DSC analysis. A summary of the chemophysical properties of Fenfluramine HCl from this study is provided below. Tabulated data includes example diffractograms, DSCs, and micrographs.

Work on `CCNC(C)Cc1cccc(C(F)(F)F)c1.Cl` (racemic) [Fenfluramine HCl, N-ethyl-α-methyl-3-(trifluoromethyl)-benzeneethanamine hydrochloride (1:1)] yielded a solubility ([1]; dichloromethane) of 30 to 35 mg/mL, a solubility ([1]; ethanol) of 150 mg/mL and a solubility ([1]; ethyl acetate, tetrahydrofuran, toluene, acetonitrile) of 1 to 5 mg/mL. It also gave a solubility (Aqueous solubility; 0.9% NaCl in water, 25 °C, saline or isotonic) of 23 mg/mL, a solubility (Aqueous solubility; pH 1.73 buffer, 25 °C, pH 1.73, simulated gastric fluid) of 25.3 mg/mL and a solubility (Aqueous solubility; pH 1.73 buffer, 37 °C, pH 1.73, simulated gastric fluid) of 53.7 mg/mL. The solubility (Aqueous solubility; pH 3.43 buffer, 25 °C, pH 3.43, aqueous buffer) was 29.5 mg/mL, the solubility (Aqueous solubility; pH 3.43 buffer, 37 °C, pH 3.43, aqueous buffer) was 62 mg/mL and the solubility (Aqueous solubility; pH 6.41 buffer, 25 °C, pH 6.41, aqueous buffer) was 37.4 mg/mL. It also gave a solubility (Aqueous solubility; pH 6.41 buffer, 37 °C, pH 6.41, aqueous buffer) of 95.6 mg/mL, a solubility (Aqueous solubility; water, 25 °C, pH 6.69, water) of 54.1 mg/mL and a solubility (Aqueous solubility; water, 37 °C, pH 6.69, water) of 71.2 mg/mL. For the same compound, the pKa [2] was 10.2 to 10.4, the “Parent remaining after degradation” value ([3]; 24 h) was 94.42% and the Parent remaining [3] was 99.90 parent area %. The Parent remaining ([3]; buffer) was 99.73 parent area %, the “Solution pH (water)” value (Solution pH (water)) was 6.69 and the “Hygroscopicity (Dynamic Vapor Sorption (DVS))” value (“Hygroscopicity” for short) ([4]; @30% RH) was “@30% RH: ~0.05%”. For the same compound, the “Hygroscopicity” value ([4]; @60% RH) was “@60% RH: ~0.07%”, the “Hygroscopicity” value ([4]; @90% RH) was “@90% RH: ~0.20%^a)” and the “Change after melt and evaporation event (XRPD, DSC, 1H NMR)” value [5] was “no change in chemical or physical form, purity, or dissociation”. The “Solid Stability: new impurities >0.1% by HPLC” value (Solid stability by HPLC) was 150 °C All conditions, no new impurities >0.1% by and the “Stability of the salt: form and new impurities at 0.1% threshold” value [6] was “input Form 1 has been maintained with no new impurities observed at 0.1% threshold”.

From patent US10351509B2, “Fenfluramine compositions and methods of preparing the same” (priority 2015, dated 2019)
